Assay results reported in patent US9072729B2, “Method for treating fibrosis and cancer with imidazolium and imidazolinium compounds” (Agency for Science, Technology and Research, priority 2008, dated 2015).

Experiments:
CAT = experiment: Catalase (CAT) activity assay in treated cells; assay type: cell-based, rat; conditions: for attenuation of CAT activity: 48 h
Experimental: FIG. 4. […] Enzyme activity was normalized against total protein. DBZIM was dissolved in DMSO, and TDBZIM was dissolved in H2O. The data were presented as mean and SEM, N=6, *^aP<0.05, *^bP<0.01, *^cP<0.005, and *^dP<0.0005, when compared to the vehicle control.
Activity levels of three anti-oxidant enzymes, GPx, CAT and SOD, were determined using assay kits from Cayman Chemical. To assay GPx and CAT activities, protein samples were harvested in ice-cold PBS containing 1 mM of EDTA. […] Protein content was determined by BCA assay.
CAT activity was determined based on reaction of the enzyme with methanol in the presence of H2O2. The formaldehyde produced was measured spectrophotometrically at 540 nm using Purpald as the chromogen. CAT activity was expressed as nmol/min/mg protein.

GFAP-LacZ transgene = experiment: β-galactosidase activity in T6/GFAP-lacZ cells; assay type: cell-based, rat
Experimental: FIG. 12. (a) DBZIM and (b) TDBZIM attenuated GFAP-LacZ transgene as reported by β-galactosidase activity. Stable transfected T6 GFAP-LacZ cells were treated with compounds of 1-300 μM concentrations, and assayed after 24 h and 48 h. The (3-galactosidase activity was normalized to the total protein, and presented as relative value after comparing to the vehicle control. The data were presented as mean and SEM, N=6, *^cP<0.005, and *^dP<0.0005, when compared to the vehicle control.
Beta-galactosidase activity in extracts from T6/GFAP-lacZ cells treated by DBZIM or TDBZIM was measured using a chemiluminescent assay kit (Roche, Mannheim, Germany) in a 96-well plate format, according to the manufacturer's instructions. Briefly, cells were washed twice with ice-cold 1×PBS (pH 7.4), and lysed for 30 min at room temperature in the lysis buffer. The supernatant was collected for assays with a Tecan Sere II plate reader. Protein concentration was determined with a BCA protein assay kit (Pierce, Ill., USA). Specific β-galactosidase activity was obtained by normalizing against total cellular protein content.

[1] = system: caspase 3, caspase 9 and PARP; experiment: Western blot of caspase-3, caspase-9 and PARP cleavage in HLE; assay type: cell-based, human; conditions: 72 h
Experimental: FIG. 38. IMSs, induce cleavage of caspase-3, caspase-9 and PARP. Western blot analysis for the effect of IBN 15, IBM 19, IBN 24, IBM 25, IBN 32 on the cleavage of caspase-3, Caspase-9 and PARP in HLE cells after 72 h exposure to indicated doses of IMSs.
The HLE cells were seeded at a density of 4×10^5 in 10 cm dish. After 24 h incubation, the cells were replaced with fresh 10% DMEM medium and then treated with 60 μM of IBN-15, 90 μM of IBN-19, 90 μM of IBN-24, 30 μM of IBN-25 and 20 μM of IBN 32 and 0.045% DMSO as control for 72 h. Whole cell lysates were prepared on day 3 with lysis buffer [125 mM Tris (pH 7.4), 2% Sodium dodecyl sulfate, 10% glycerol, 6M urea and a protease inhibitor cocktail (Sigma) and 0.02% Bromophenol blue]. The lysates were sonicated for 30 seconds and then heated for 5 mins at boiling temperature. The lysates were centrifuged at 13000 rpm for 10 mins and the protein concentration of each sample was estimated using the BCA protein assay. The lysates was then mixed with 5% 2-mercaptoethanol and stored at −80 C. For Western blotting, samples containing 50 μg of total cell lysate were loaded onto a SDS-PAGE and subjected to electrophoresis. Proteins were transferred to a nitrocellulose membrane and then blocked with 5% non-fat dry milk in Tris buffer saline containing 0.1% Tween 20 for 60 min at 37 C. The membranes were probed with a primary antibody overnight at 4 C in TEST containing 5% Bovine serum albumin. Then the membrane was incubated with horseradish peroxidase (HRP)-conjugated anti-rabbit or anti-mouse secondary antibodies (GE Health care, Chalfont St Giles, UK). Detection was performed with enhanced chemiluminescence (ECL) reagent (Amersham Arlington Heights, Ill.) according to the manufacturer's protocol. Rabbit polyclonal Phospho-p53 (Ser15, 20, 46, 392), anti-caspase-9, anti-caspase-3, anti-PARP antibodies were purchased from Cell Signaling Technology, Inc. (Beverly, Mass., USA). Antibodies against p53 and p21 were purchased from Santa Cruz Biotechnology (Santa Cruz, Calif., USA).

p53 = experiment: Immunostaining and confocal microscopy of p53; assay type: cell-based, human; conditions: HLE, 48 h
Experimental: FIG. 39. IMSs-induced apoptosis was accompanied by accumulation of p53 in the nucleus. HLE cells were treated with the indicated dose of IBN 19 and IBN 24 for 48 h. The treated cells were fixed with 4% formaldehyde, immunostained with anti-p53 (green fluorescence) and DAPI (blue fluorescence), and analysed by confocal microscopy.
For immunostaining, HLE cells were seeded at a density of 1×10^4 in 8 well chamber slide. After 24 h incubation, the cells were replaced with 200 μl fresh 10% DMEM medium and then treated with 60 μM of IBN-15, 90 μM of IBN-19, 90 μM of IBN-24, 30 μM of IBN-25 and 20 μM of IBN-32 and 0.045% DMSO as control for 24 and 48 h. After washing, cells were fixed in 4% formaldehyde for 15 mins and permeabilized with 0.5% Triton X-100 in PBS for 10 mins. The cells were then blocked for 60 min in PBS containing 3% bovine serum albumin and then incubated for 1 h with a mouse antibody against nucleolin (MS-3, Santa Cruz; 1:100 in blocking buffer). After washing extensively with PBS, the cells were then incubated for 1 h at room temperature in dark with a FITC-conjugated antibody against mouse IgG (1:20 ilution). The slides were mounted with a VectaShield medium containing DAPI (Vector Laboratories, Burlingame, Calif.). Microscopy was performed with a Zeiss LSM 510 Meta (upright stand) confocal microscope.

Molecule	attenuation of CAT activity (CAT; 10 μM) [%]	attenuation of CAT activity (CAT; 50 μM) [%]	attenuation of CAT activity (CAT; 100 μM) [%]	activation and cleavage of caspase 3, caspase 9 and PARP [1]	p53 expression and nuclear accumulation (p53)	other results
1,3,5-tris(4-methyl-imidazolium)-linked cyclophane.3Br [TDBZIM]	25	31	20			suppression of β-galactosidase activity (transient) (GFAP-LacZ transgene; 100 μM, 24 h): 20%
[Br-].c1ccc(Cn2cc[n+](Cc3ccccc3)c2)cc1 [DBZIM, 1,3-bisbenzylimidazolium bromide]	19	16	12			attenuation of CAT activity (CAT; 300 μM, without statistical significance): 8%; suppression of β-galactosidase activity (GFAP-LacZ transgene; 100 μM): 25%; suppression of β-galactosidase activity (GFAP-LacZ transgene; 300 μM): 34%
CC(=O)Oc1ccc(C[n+]2ccn(Cc3ccccc3)c2C)cc1.[Cl-] [IBN-19, 1-benzyl-3-(4-acetate-benzyl)-2-methyl-imidazolium chloride]				induced significant activation and cleavage	induced p53 expression and accumulation in the nucleus	
Cc1ccc(C[n+]2ccn(Cc3ccccc3)c2)cc1.[Cl-] [IBN-24, 1-benzyl-3-(4-methylbenzyl)-imidazolium chloride]				induced significant activation and cleavage	induced p53 expression and accumulation in the nucleus	
(−)-Epigallocatechin gallate [EGCG, reference compound]						suppression of CAT activity (references) (CAT; EGCG, NAC (FIG. 4c)): 13%
